Results on three compounds are retold here after US4617394A, “4-methyl-5-(unsubstituted and substituted phenoxy)-2,6-dimethoxy-8-(aminoalkylamino) quinolines” (priority 1985, dated 1986).

Values joined by “and” are separate entries in the source; they are usually repeats but may differ in a detail not shown here. Equal entries are not always repeated. “Also recorded” adds a separate entry of the source. Where two headings read alike, the source gives them in different places.

Series [1] relates to methemoglobin. Format: in vivo, Dog. As to conditions: for Peak % MHb / Slope of MHb Formation / Time of Peak MHb / MHb Disappearance Half-Time / MHb Production as AUC Corrected for Baseline: oral capsule, days 0-3, 3 mg/kg primaquine base per day or molar equivalent; for Peak % MHb / Slope of MHb Formation / Time of Peak MHb / MHb Production as AUC Corrected for Baseline: means differ significantly (p <.05); for MHb Disappearance Half-Time: no difference in the means; for MHb Production as AUC Corrected for Baseline: total methemoglobin production.
Procedure: ^a Primaquine, Comparative Compound, or Compound X, were administered
orally by capsule for four days on days 0, 1, 2 and 3 at a dose of 3 mg/k
primaquine base per day or the molar equivalent.
^e Total methemoglobin production expressed as mg of MHb/ml of
blood/hr for a total of 2 days after administration of the first dose.
^f Area under the % methemoglobin versus time curve (AUC).

Series [2] concerns Plasmodium berghei KBG 173. The experiment in a line: animal or person. Format: in vivo, young ICR/HA Swiss mice. The following applies: for ΔMST: 5 mice; for Toxic death (T): number of 5 mice, 320 mg/kg. From the text:
Blood Schizonticidal Test (Mouse), University of Miami, Rane (suppressive)
This system is based on comparisons of responses to test compounds by Plasmodium berghei KBG 173 malaria in mice as expressed in mean survival times and the mean survival times of untreated controls. Thus, compounds noted as active produce increases in the survival times of the treated animals that are significant when compared with the survival times of untreated controls. Since an established disease is less sensitive to treatment than a disease in the early stages of development, treatment is withheld until the parasitemia is relatively high in order to insure a more reliable assay of activity and the selection of appropriate compounds for intensive preclinical studies.
Utilizing young ICR/HA Swiss mice and a standard inoculum of Plasmodium berghei KBG 173, it is possible to produce a uniform disease fatal to 100% of untreated animals within 6 to 8 days with a mean survival time of 6.2 days. Test animals weigh from 18 to 22 grams but weight variations in any given experimental or control group are confined to 2 to 3 grams. All animals in any given test are approximately of the same age. Animals on test are housed in metal-topped plastic cages, given a standard laboratory diet and water ad libitum.
Test animals receive an intraperitoneal injection of 0.5 ml of 1:100 dilution of heparinized heart's blood with a minimum of 90% parasitized cells (4×10^7 cells), drawn from donor mice infected one week earlier with Plasmodium berghei. The donor strain is maintained by weekly passages in separate groups of mice inoculated with a 0.5 ml of 1:500 dilution of heparinized heart's blood.
Test compounds are administered after dissolution or suspension in peanut oil. A single dose is given subcutaneously 72 hours after the mice are infected with Plasmodium berghei. At this time a 10-15 percent parasitemia has developed; the disease is well established but has not produced sufficient debility to alter the response of the host to toxic effects of the drug on test. Since treatment is withheld for three days to permit the infection to become well established and death occurs in untreated controls within 6 to 8 days, it is believed that this system presents a candidate compound with the maximum challenge. In order to check factors such as changes in the infectivity of Plasmodium berghei or in the susceptibility of the host or to detect technical errors, a group of infected animals treated with pyrimethamine at dose levels producing definite increases in survival time is included as a positive control in every experiment.
In each experiment test compounds are administered in graded doses. […] However, if an active drug is toxic for the host, its toxicity may become a limiting factor; continued increases in dose levels also increase the toxic effects and may result in the diminution of survival times. Deaths prior to the sixth day, when untreated controls begin to die, are regarded as non-parasitic and become the basis for the interpretation that the drug is toxic. Treated animals are kept under observation for 60 days. Survivors at the end of this period of time are considered as cured.
An increase of 100% in mean survival time is considered the minimum effective response for a candidate compound. In calculating mean survival time, toxic deaths and 60 day survivors are not included.

Series [3] has as its system Plasmodium vivax and P. ovale malaria. As to conditions: background; cited from earlier work.
In series [4] the test system is Chesson strain of P. vivax. The experiment in a line: Antimalarial activity against (trophozoite-induced) infections of the Chesson strain of P. vivax in the Aotus monkey. Format: in vivo.
The nature of series [5]: Acute toxicity in the rat by oral or intraperitoneal administration. As to conditions: for LD50 (95% Confidence Limit): Rat.
Series [6] concerns Plasmodium cynomolgi (strain B). Nature of the series: Radical Curative Test in Rhesus Monkeys, SEATO Medical Research Laboratory. The class given is in vivo, Indian rhesus monkeys. The following applies: for Radical Curative Activity, Cures (C): Table 1, Seato Rhesus; for Cures (C): Table 8, Seato. The method, then: Radical Curative Test in Rhesus Monkeys, SEATO Medical Research Laboratory, Bangkok,
This test is designed to evaluate the tissue schizonticidal (radical curative) activity of test compounds. Well-conditioned Indian rhesus monkeys of either sex weighing 2-4 Kg are utilized. Plasmodium cynomolgi (strain B) sporozoites are prepared by grinding heavily infected Anopheles dirus salivary glands in 1:1 monkey serum-saline vehicle.
Monkeys are infected by I.V. injection of 10^6 freshly isolated P. cynomolgi sporozoites on day 0. A rapidly rising parasitemia develops after a 7 to 9 day prepatient period, and administration of the test drug is initiated when the rising parasite count exceeds 5000 per mm^3 (typically day 10-12). Test drugs are administered orally (by nasogastric intubation) once daily for 7 consecutive days in aqueous solution or, if insoluble, in suspension in 0.3% methylcellulose solution. Chloroquine diphosphate (3.1 mg of base/kg orally per day) is always administered concurrently with the test drug for 7 days to eliminate blood schizonts. Thus any tissue schizonticidal activity of the test drug will always be apparent even if it lacks blood schizonticidal activity.
A vehicle control monkey and a positive drug control (primaquine) monkey are included in each group of inoculated monkeys.
The effect of the test drug is determined by counting blood parasites. Parasite counts are made daily through day 20, and every two days thereafter. Initially a clearance of blood parasites is observed due to the blood schizonticidal action of chloroquine. […] If there is no relapse within 20 days of the initial clearance of parasitemia, the monkey is splenectomized and its parasitemia followed for an additional 30 days. If there is no relapse within this period, the experiment is terminated and the monkey is considered "cured". Alternately, in some experiments, negative parasitemia was followed for 100 days without prior splenectomy. It has been determined that the splenectomy and non-splenectomy methods yield virtually identical results.
Primaquine diphosphate cures over 90% of monkeys in this test system when administered at a dose of 1.3 mg/kg of salt per day for 7 days ([…]) in combination with chloroquine.

Series [7] has as its system methemoglobin. The following applies: background; cited from earlier work.
The next series concerns P. berghei yoelli. The experiment in a line: Causal prophylactic activity against sporozoite induced P. berghei yoelli in the mouse. The class given is in vivo. The following applies: for Cures: subcutaneous.
Series [8] relates to Plasmodium berghei KBG 173. The following applies: dose levels as low as; cited from earlier work.
Setting [9] is: Table 2, P. cynomolgi, Rhesus, 0.10 mg/kg × 7 of salt.
Where [10] appears, read: Table 2, P. cynomolgi, Rhesus, 0.316 mg/kg × 7 of salt.
Where [11] appears, read: Table 2, P. cynomolgi, Rhesus, 1.0 mg/kg × 7 of salt.

Consider `COc1cc(NC(C)CCCN)c2ncccc2c1` (stereo not shown) [Primaquine diphosphate, 8-(4-amino-1-methylbutylamino)-6-methoxyquinoline], for which the “Peak % MHb” value in the series with methemoglobin [1] came to 6.27 ± 3.86%. The “Slope of MHb Formation” value with methemoglobin [1] came out at 0.93 ± 0.61. The “Time of Peak MHb” value with methemoglobin [1] worked out at 3.92 ± 0.34 days. Further, in the series on methemoglobin [1], the “MHb Disappearance Half-Time” value came out at 7.89 ± 3.30 days. Moreover, the “MHb Production as AUC Corrected for Baseline” value in the series with methemoglobin [1] was 2,138 ± 1,484 mg of MHb/ml of blood/hr. The minimal effective dose in series [2] (Plasmodium berghei, in Mus musculus, Table 4, read-out: active dose (active only at)) stood at 160 mg/kg. The “suppressive activity in words” value in series [2] (Rane mouse test) is “very weak activity at non-toxic dose levels”. Further, the ΔMST was found to be 9 days in series [2] (Table 1, P. berghei, Rane Mouse Test, 160 mg/kg) and 9 days in series [2] (Table 4, 160 mg/kg). Further, the “Toxic death (T)” value in [2] (Table 1) and in series [2] (Table 4) was 2/5 each time. In addition, the “curative activity in words” value in [2] (Table 4, highest dose of 640 mg/kg) is “not curative even at the highest dose of 640 mg/kg”. In series [3], the “toxicity in man, in words” value is given as “the toxicity of primaquine precludes administration of a single curative dose”. Also, the Cures was 0/10 in [4] (3.3 mg/kg × 3 of base); 3/8 in [4] (13.3 mg/kg × 3 of base); 5/6 in [4] (26 mg/kg × 3 of base); 50% in [6] (1.0 mg/kg); 100% in series [6] (1.3 mg/kg); 0/2 in series [6] (setting [9]). Also, the Cures in series [6] (setting [10]) is 0/2; in [6] (setting [11]), 1/2; in series [6] (Table 2, P. cynomolgi, Rhesus, 1.3 mg/kg × 7 of salt), 6/6. In addition, in series [5] (female, oral), the “LD50 (95% Confidence Limit)” value is reported as 244 (193-260) mg/kg (Salt). Moreover, the “radical curative activity in words” value in series [6] (0.316 mg/kg) was “inactive”. Also, the monkeys cured result in series [6] (1.3 mg/kg of salt per day for 7 days (1.0 mg/kg free base), in combination with chloroquine) is “over 90%”. For the same compound, the “Radical Curative Activity, Cures (C)” value is reported as 0/2 in series [6] (P. cynomolgi, 0.316 mg/kg (× 7)); 1/2 in series [6] (P. cynomolgi, 1.0 mg/kg (× 7)); 6/6 in [6] (P. cynomolgi, 1.3 mg/kg (× 7)). For the same compound, the “methemoglobin formation in words” value in the series with methemoglobin [7] is “cause methemoglobinemia; also recorded: Methemoglobin formation is induced”.
Turning to `COc1cc(C)c2c(Oc3cccc(C(F)(F)F)c3)c(OC)cc(NC(C)CCCN)c2n1.O=C(O)CCC(=O)O` (stereo not shown) [Compound X, 8-(4-Amino-1-methylbutylamino)-2,6-dimethoxy-4-methyl-5-(3-trifluoromethylphenoxy)quinoline Succinate], the “total methemoglobin formation (area under the curve), less than Comparative Compound” value in the series on methemoglobin [1] (Table 7, 46% less) was determined as 46%. Further, the “methemoglobin-forming property in words” value with methemoglobin [1] (Table 7, Succinate) is “significantly less toxic in terms of methemoglobinemia”; with methemoglobin [1] (Table 7, listed as Compound X succinate, Succinate), “much less potent methemoglobin-forming compound than the Comparative Compound”. Besides, the “peak level of methemoglobin” value with methemoglobin [1] (Table 7, equimolar doses) turned out to be 16%. Also, the “MHb Disappearance Half-Time, individual dogs” value in the series on methemoglobin [1] (footnote h, data of single dogs of the group, Succinate) is 5.08 days and 7.71 days and 23.30 days. Also, the “Peak % MHb” value in the series on methemoglobin [1] was determined as 16.0 ± 7.72%. In addition, the “Slope of MHb Formation” value in the series with methemoglobin [1] came to 0.61 ± 0.10. Moreover, the “Time of Peak MHb” value in the series on methemoglobin [1] stood at 6.83 ± 0.72 days. In addition, in the series on methemoglobin [1], the “MHb Disappearance Half-Time” value stood at 12.03 ± 9.85 days. In the series with methemoglobin [1], the “MHb Production as AUC Corrected for Baseline” value was 7,887 ± 3,609 mg of MHb/ml of blood/hr. Further, the “blood schizonticidal activity in the mouse, in words” value in series [2] (Table 4) is listed as “blood schizonticidal activity in the mouse similar to the Comparative Compound”. Further, the ΔMST worked out at 4 days in series [2] (Table 4, 5 mg/kg); 6 days in [2] (Table 4, 10 mg/kg); 9 days in [2] (Table 4, 20 mg/kg). Also, the Cures is listed as 0/5 in the series with P. berghei yoelli (2.5 mg/kg of salt); 4/10 with P. berghei yoelli (10 mg/kg of salt); 9/10 in the series with P. berghei yoelli (40 mg/kg of salt); 5/5 in the series on P. berghei yoelli (160 mg/kg of salt); 2/2 in series [4] (1 mg/kg × 3 of base); 4/4 in series [4] (4 mg/kg × 3 of base). The Cures in series [4] (16 mg/kg × 3 of base) was 3/3; in series [4] (32 mg/kg × 3 of base) it was 1/1; in [6] (Table 2, P. cynomolgi, Rhesus, 0.0316 mg/kg × 7 of salt), 0/2; in [6] (setting [9]) it was 2/4; in series [6] (setting [10]), 4/4; in series [6] (setting [11]) it was 2/2. For the same compound, in the series with P. berghei yoelli (Table 5, Succinate), the “prophylactic activity in words” value is listed as “showed prophylactic activity; also recorded: slightly less than that observed with the Comparative Compound”. Moreover, the “blood schizonticidal activity in words” value in series [4] (Table 3, Succinate) is “much greater blood schizonticidal activity than primaquine; also recorded: slightly better activity than the Comparative Compound”. Moreover, the “LD50 (95% Confidence Limit)” value in series [5] (female, I.P.) is on record as 71 (14-114) mg/kg (Salt); in [5] (female, oral), 416 (376-449) mg/kg (Salt); in series [5] (male, I.P.), 102 (25-164) mg/kg (Salt); in [5] (male, oral), 429 (320-515) mg/kg (Salt). In addition, the “acute toxicity in words” value in series [5] (Table 6, orally or intraperitoneally) is “less toxic than primaquine or the Comparative Compound”. Also, the “Molar Primaquine Index by Regression Analysis” value in series [6] (Table 2, ratio of molar ED50, relative to primaquine) worked out at 12.8. The “Cures (C)” value in series [6] (P. cynomolgi, 0.0316 mg/kg (×7)) is on record as 0/2; in [6] (P. cynomolgi, 0.1 mg/kg (×7)) it was 2/4; in [6] (P. cynomolgi, 0.316 mg/kg (×7)), 4/4; in series [6] (P. cynomolgi, 1.0 mg/kg (×7)), 2/2. In series [6] (calculated by regression analysis, P. cynomolgi, Rhesus), the “potency relative to primaquine diphosphate, molar basis” value is listed as 12.8 times. In series [6] (radical curative, P. cynomolgi, Rhesus), the “potency relative to Comparative Compound” value is listed as “approximately two”.
For `OC(c1cc(C(F)(F)F)nc2c(C(F)(F)F)cccc12)C1CCCCN1` (stereo not shown) [mefloquine], the “curative dose, Rane Mouse Test” value in series [8] is 20 mg/kg.
